Data as given in publication PMC10831071, “Reaction hijacking inhibition of Plasmodium falciparum asparagine tRNA synthetase” (Nature Communications, 2024).
Values joined by “and” are separate entries in the source; they are usually repeats but may differ in a detail not shown here. Identical values can stand only once.

Key:
[1] = target: T1, HsAsnRS (Homo sapiens, UniProt O43776); test: ATP consumption assay (Kinase-Glo), HsAsnRS; assay type: biochemical; details: for ATP consumption: HsAsnRS, normalised to 1 (Fig 3C)
T1 construct: HsAsnRS (residues M1–P548) and CDHsAsnRS (residues A98–P548); His6 (N, cleaved yes); made in house; host or cells: E. coli BL21 (DE3), pET11a
T1 sequence (O43776 1-548): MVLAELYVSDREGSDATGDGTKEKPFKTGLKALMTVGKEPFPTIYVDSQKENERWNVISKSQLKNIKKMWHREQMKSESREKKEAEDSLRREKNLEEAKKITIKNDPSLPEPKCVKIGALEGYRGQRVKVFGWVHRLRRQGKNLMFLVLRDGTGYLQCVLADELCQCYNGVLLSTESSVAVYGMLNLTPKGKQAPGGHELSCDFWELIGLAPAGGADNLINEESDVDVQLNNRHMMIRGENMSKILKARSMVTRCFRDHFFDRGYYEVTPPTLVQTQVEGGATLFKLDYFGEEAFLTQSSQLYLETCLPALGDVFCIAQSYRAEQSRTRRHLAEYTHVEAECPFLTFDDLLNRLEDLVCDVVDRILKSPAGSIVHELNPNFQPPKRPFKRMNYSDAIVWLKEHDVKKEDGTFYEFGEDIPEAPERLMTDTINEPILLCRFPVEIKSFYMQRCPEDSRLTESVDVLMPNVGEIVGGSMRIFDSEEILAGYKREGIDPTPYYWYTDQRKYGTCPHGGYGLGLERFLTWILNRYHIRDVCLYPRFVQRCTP

[2] = system: Dd2 parasites selected with OSM-S-106; test: Sensitivity of ramp-up OSM-S-106-selected Dd2 clones; assay type: cell-based; details: Plasmodium falciparum
[3] = system: protein translation in P. falciparum trophozoites (Cam3.II-rev); test: Protein translation assay (OPP incorporation); assay type: cell-based, Plasmodium falciparum; details: for Translation: 6 h exposure, individual experiments, 0 nM = 100
Procedure: O-propargyl-puromycin (OPP) (Abcam) was added to the culture and incubated for a further 2 h. Parasites were washed three times in 1 × PBS (Gibco™) and fixed with 4% formaldehyde (Polysciences) and 0.02% glutaraldehyde (Sigma) in 1 × PBS for 20 min at room temperature (RT). Cells were washed two times with buffer A (3% human serum in 1 × PBS). Pellets were permeabilized in buffer A containing 0.05% Triton® X-100 and washed two times with buffer A. Fixed-permeabilized cells were subjected to copper-catalyzed azide–alkyne cycloaddition (CuAAC) at 37 °C for 1 h in the presence of 0.1 mM CuSO4, 0.5 mM THPTA, 5 mM sodium ascorbate, and 0.1 μM Alexa Fluor 488 azide in buffer A. Pellets were washed four times in buffer A and resuspended in buffer A containing 25 μg/ml propidium iodide (Invitrogen™). Cells were interrogated by flow cytometry (FACS Canto II; BD Biosciences, San Jose, CA) using FITC and Cy™5.5 channels.

[4] = system: PfAsnRS; test: LC-MS of Asn-OSM-S-106 adduct generated by recombinant PfAsnRS; assay type: biochemical, Plasmodium falciparum; details: 1 μM PfAsnRS, 10 μM OSM-S-106, 1 h, 37 °C; individual experiments
Procedure: The reaction buffer consists of 100 mM HEPES pH 7.5 (KOH), 160 mM KCl, 3.5 mM MgCl2, 1 mM DTT. The mixture was incubated at 37 °C for 1 h. After that, an equal volume of 8 M urea was added to the mixture. Finally, trifluoroacetic acid was added to a final concentration of 1%. The sample was centrifuged at 15,000 × g for 10 min and the supernatant was used for LCMS analysis. […] Quantification of the conjugates was done using Skyline (version 21.1.0.278).
Samples were analyzed by reversed-phase ultra-high-performance liquid chromatography (UHPLC) coupled to tandem mass spectrometry (MS/MS) employing a Vanquish UHPLC linked to an Orbitrap Fusion Lumos mass spectrometer (Thermo Fisher Scientific, San Jose, CA, USA) operated in positive ion mode. Solvent A was 0.1% formic acid/10 mM ammonium acetate in water and solvent B was 0.1% formic acid/10 mM ammonium acetate in acetonitrile. […] Finally, the percentage of solvent B was decreased to 0% in 0.1 min and maintained for 3.9 min.
MS experiments were performed using a Heated Electrospray Ionization (HESI) source. The spray voltage, flow rate of sheath, auxiliary and sweep gases were 3.5 kV, 20, 6, and 1 ‘arbitrary’ unit(s), respectively. The ion transfer tube and vaporizer temperatures were maintained at 350 °C and 400 °C, respectively, and the S-Lens RF level was set at 50%. […]

Nc1ncnc2cc(-c3cccc(S(N)(=O)=O)c3)sc12 [OSM-S-106]
ATP consumption ([1]; 0.1 μM OSM-S-106): 0.9809 and 0.9695 and 0.9878 | IC50 ([1]; 0.2 μM HsAsnRS, E. coli tRNA present, 37 °C, 1 h (Fig. 3C, D)): > 100000 nM | ATP consumption ([1]; 1 μM OSM-S-106): 0.993 and 0.9826 and 1 | ATP consumption ([1]; 3 μM OSM-S-106): 0.9931 and 0.9791 and 0.9532 | ATP consumption ([1]; 10 μM OSM-S-106): 0.9721 and 1 and 0.9745 | ATP consumption ([1]; 30 μM OSM-S-106): 0.9297 and 0.9566 and 0.9615 | ATP consumption ([1]; 100 μM OSM-S-106): 0.955 and 0.928 and 0.9784 | ATP consumption ([1]; 200 μM OSM-S-106): 0.929 and 0.9898 | IC50 ([2]; DD2, parasite Dd2-B2-2 (parent)): 79 ± 12 nM | IC50 ([2]; DD2, parasite Dd2-B2-3 (parent)): 80 nM | IC50 ([2]; DD2, parasite Dd2-OSM-2A6): 700 nM | IC50 ([2]; DD2, parasite Dd2-OSM-2A9): 320 nM | IC50 ([2]; DD2, parasite Dd2-OSM-2B2): 700 nM | IC50 ([2]; DD2, parasite Dd2-OSM-2D6): 780 nM | IC50 ([2]; DD2, parasite Dd2-OSM-3E5): 160 nM | IC50 ([2]; DD2, parasite Dd2-OSM-3H7): 220 nM | Translation ([3]; 78.1 nM): 88.2194 and 68.5604 and 78.7165 | Translation ([3]; 156.3 nM): 70.9569 and 76.7178 and 73.7965 | Translation ([3]; 312.5 nM): 55.5714 and 55.4781 and 55.6229 | Translation ([3]; 625 nM): 47.9476 and 51.4282 and 41.085 | Translation ([3]; 1250 nM): 31.8914 and 46.8967 and 33.6793 | Translation ([3]; 2500 nM): 20.1284 and 25.4073 and 16.4444 | Translation ([3]; 5000 nM): 10.3606 and 16.5158 and 20.3119 | Translation ([3]; 10000 nM): 7.683 and 13.3898 and 13.8481 | Translation ([3]; 20000 nM): 7.414 and 4.917 and 2.903 | Translation ([3]; 40000 nM): 7.804 and 8.474 and 8.853 | IC50 ([3]; Plasmodium falciparum, read-out: IC50 (Translation)): 510 nM | MS peak area (Asn-OSM-S-106 adduct) [4]: 50050244 and 46285516 and 50264000 and 46572204
